From patent US6372774B1, “Derivatives of N-phenylpyrazoles” (Rhone-Poulenc Agriculture Ltd., priority 1985, dated 2002) come the findings set out here.

Type in all cases: in vivo
The test system of test [1] is Phaedon cochleariae (Mustard Beetle). Description: Test 3 a): leaf disc spray test, Phaedon cochleariae larvae. Particulars: for pest or weed control at 10 ppm / mortality at 5 ppm: Phaedon cochleariae, foliar; for pest or weed control at 10 ppm: read-out: Phaedon % m 10 ppm; for mortality at 5 ppm: read-out: mortality of larvae of Phaedon cochleariae. An excerpt:
(§1) One or more dilutions of the compounds to be tested were made in 50% aqueous acetone.
(§2) a) Test species: Plutella xylostella (Diamond-back Moth) and Phaedon cochleariae (Mustard Beetle)
(§3) Turnip leaf discs were set in agar in petri-dishes and infected with 10 larvae (2nd instar Plutella or 3rd instar Phaedon). Four replicate dishes were assigned to each treatment and were sprayed under a Potter Tower with the appropriate test dilution. Four or five days after treatment the dishes were removed from the constant temperature (25° C.) room in which they had been held and the mean percentage mortalities of larvae were determined.

The subject of test [2] is Megoura viciae (Vetch Aphid). The test is described as follows: Test 3 b): spray of infested tic bean plants, Megoura viciae. As to conditions: for score from 4 replicates, Megoura viciae: Test 3 method (b), application of 50 ppm, score 0-3 per replicate, maximum 12; for mortality at 50 ppm: Megoura viciae, read-out: mortality of Megoura viciae; for Megoura score/12 50 ppm: Tables 1 and 3, sum of scores 0-3 of 4 replicates. The procedure:
as §1
b) Megoura viciae (Vetch Aphid)
Potted tic bean plants previously infected with mixed stages of Megoura were sprayed to run-off using a laboratory turntable sprayer. Treated plants were held in a greenhouse for 2 days and were assessed for aphid mortality using a scoring system, judging the response in comparison with plants treated with 50% aqueous acetone alone, as controls.

The test system of test [3] is Plutella xylostella (Diamond-back Moth). The test is described as follows: whole plant or invertebrate. As to conditions: foliar; for mortality at 500 ppm: read-out: mortality of larvae of Plutella xylostella.
Source text: as §1, §2, §3

For the compound “5-Amino-3-chlorodifluoromethyl-1-(2,6-dichloro-4-trifluoromethylphenyl)-4-cyanopyrazole [Compound 128]”, in test [1] (Tables 1-3, % mortality at 10 ppm), the “Phaedon % m 10 ppm” value is given as 100%. Moreover, the “score from 4 replicates, Megoura viciae” value in test [2] is on record as 12.
For “5-Amino-3-chlorofluoromethyl-4-cyano-1-(2,6-dichloro-4-trifluoromethylphenyl)pyrazole [Compound 166]”, in test [2], the “score from 4 replicates, Megoura viciae” value is 12.
Take `Cc1nn(-c2c(Cl)cc(C(F)(F)F)cc2Cl)c(N)c1C#N` [Compound 112, 5-Amino-4-cyano-1-(2,6-dichloro-4-trifluoromethylphenyl)-3-methylpyrazole]: in test [1], the pest or weed control at 10 ppm turned out to be 98%. Further, in test [2], the mortality at 50 ppm stood at 100% and the “score from 4 replicates, Megoura viciae” value was 12.
With `N#Cc1c(Cl)nn(-c2c(Cl)cc(C(F)(F)F)cc2Cl)c1N` [Compound 114, 5-Amino-3-chloro-4-cyano-1-(2,6-dichloro-4-trifluoromethylphenyl)pyrazole], the pest or weed control at 10 ppm in test [1] was 100%. In addition, the “Megoura score/12 50 ppm” value in test [2] turned out to be 9. Further, the mortality at 500 ppm in test [3] was found to be 100%.
Turning to `N#Cc1c(Br)nn(-c2c(Cl)cc(C(F)(F)F)cc2Cl)c1N` [Compound 115, 5-Amino-3-bromo-4-cyano-1-(2,6-dichloro-4-trifluoromethylphenyl)pyrazole], in test [1], the pest or weed control at 10 ppm is 100%. Also, the “Megoura score/12 50 ppm” value in test [2] is 10. Also, the mortality at 500 ppm in test [3] was 100%.
Consider `CCSNc1c(C#N)c(C)nn1-c1c(Cl)cc(C(F)(F)F)cc1Cl` [Compound 117, 4-Cyano-1-(2,6-dichloro-4-trifluoromethylphenyl)-3-methyl-5-ethanesulphenylaminopyrazole], for which the pest or weed control at 10 ppm in test [1] was 68%. Besides, in test [2] (Table 3, value marked +: score at 10 ppm), the “Megoura score/12 at 10 ppm” value is recorded as 10+.
With `COC=Nc1c(C#N)c(C)nn1-c1c(Cl)cc(C(F)(F)F)cc1Cl` [Compound 118, 4-Cyano-1-(2,6-dichloro-4-trifluoromethylphenyl)-3-methyl-5-methoxymethyleneaminopyrazole], the pest or weed control at 10 ppm in test [1] came to 45%. The “Megoura score/12 50 ppm” value in test [2] turned out to be 10. Further, in test [3] (read-out: Plutella % m 500 ppm), the pest or weed control at 500 ppm turned out to be 73%.
With `N#Cc1c(C(F)(F)C(F)(F)F)nn(-c2c(Cl)cc(C(F)(F)F)cc2Cl)c1N` [Compound 127, 5-Amino-4-cyano-1-(2,6-dichloro-4-trifluoromethylphenyl)-3-pentafluoroethylpyrazole], in test [1], the pest or weed control at 10 ppm stood at 100%. Besides, the “Megoura score/12 50 ppm” value in test [2] is 10. Also, in test [3] (read-out: Plutella % mortality at 100 ppm), the mortality at 100 ppm stood at 100%.
As to `N#Cc1c(C(F)F)nn(-c2c(Cl)cc(C(F)(F)F)cc2Cl)c1N` [Compound 129, 5-Amino-1-(2,6-dichloro-4-trifluoromethylphenyl)-4-cyano-3-difluoromethylpyrazole], the pest or weed control at 10 ppm in test [1] is 100%. In addition, in test [2], the mortality at 50 ppm was 100% and the “score from 4 replicates, Megoura viciae” value came out at 12. Moreover, the mortality at 500 ppm in test [3] is 100%.
For the compound `N#Cc1c(C(F)(F)F)nn(-c2c(Cl)cc(OC(F)(F)F)cc2Cl)c1N` [Compound 144, 5-Amino-4-cyano-1-(2,6-dichloro-4-trifluoromethoxyphenyl)-3-trifluoromethylpyrazole], the mortality at 5 ppm in test [1] came to 100%. In test [2], the mortality at 50 ppm turned out to be 100% and the “score from 4 replicates, Megoura viciae” value is 12. Besides, the mortality at 500 ppm in test [3] worked out at 100%.
In the case of `N#Cc1cn(-c2c(Cl)cc(C(F)(F)F)cc2Cl)nc1C(F)(F)F` [Compound 150, 4-Cyano-1-(2,6-dichloro-4-trifluoromethylphenyl)-3-trifluoromethylpyrazole], the pest or weed control at 10 ppm in test [1] was found to be 100%. Besides, the “Megoura score/12 50 ppm” value in test [2] is reported as 10. Further, the mortality at 500 ppm in test [3] was 100%.
`N#Cc1c(C(F)(F)F)nn(-c2c(Cl)cc(C(F)(F)F)cc2Cl)c1I` [Compound 151, 4-Cyano-1-(2,6-dichloro-4-trifluoromethylphenyl)-5-iodo-3-trifluoromethylpyrazole]: the pest or weed control at 10 ppm in test [1] was 100%. Besides, the “Megoura score/12 50 ppm” value in test [2] is on record as 11. Besides, the mortality at 500 ppm in test [3] worked out at 100%.
As to `CN(C)S(=O)(=O)c1c(C(F)(F)F)nn(-c2c(Cl)cc(C(F)(F)F)cc2Cl)c1N` [Compound 153, 5-Amino-1-(2,6-dichloro-4-trifluoromethylphenyl)-4-(N,N-dimethylsulphamoyl)-3-trifluoromethylpyrazole], the pest or weed control at 10 ppm in test [1] turned out to be 100%. Further, the “Megoura score/12 50 ppm” value in test [2] was 11.
For `N#Cc1nn(-c2c(Cl)cc(SC(F)(F)F)cc2Cl)c(N)c1C#N` [Compound 156, 5-Amino-3,4-dicyano-1-(2,6-dichloro-4-trifluoromethylthiophenyl)pyrazole], in test [2], the mortality at 50 ppm was 100% and the “score from 4 replicates, Megoura viciae” value was 12.
Turning to `Cc1nn(-c2c(Cl)cc(C(F)(F)F)cc2Cl)c(N)c1S(C)(=O)=O` [Compound 161, 5-Amino-1-(2,6-dichloro-4-trifluoromethylphenyl)-4-methanesulphonyl-3-methylpyrazole], the mortality at 5 ppm in test [1] was found to be 100%. Besides, in test [2], the mortality at 50 ppm stood at 100% and the “score from 4 replicates, Megoura viciae” value is recorded as 12.
As to `N#Cc1c(C(F)(F)F)nn(-c2c(Cl)cc(SC(F)(F)F)cc2Cl)c1N` [Compound 165, 5-Amino-4-cyano-1-(2,6-dichloro-4-trifluoromethylthiophenyl)-3-trifluoromethylpyrazole], the mortality at 5 ppm in test [1] was determined as 100%. Moreover, in test [2], the mortality at 50 ppm turned out to be 100% and the “score from 4 replicates, Megoura viciae” value is reported as 12.
With `Cc1nn(-c2c(Cl)cc(C(F)(F)F)cc2Cl)c(N)c1I` [Compound 190, 5-Amino-1-(2,6-dichloro-4-trifluoromethylphenyl)-4-iodo-3-methylpyrazole], in test [2], the mortality at 50 ppm was found to be 100% and the “score from 4 replicates, Megoura viciae” value is recorded as 12.
As to `Cc1nn(-c2c(Cl)cc(C(F)(F)F)cc2Cl)c(N)c1[N+](=O)[O-]` [Compound 191, 5-Amino-1-(2,6-dichloro-4-trifluoromethylphenyl)-3-methyl-4-nitropyrazole], in test [2], the mortality at 50 ppm came to 100% and the “score from 4 replicates, Megoura viciae” value was found to be 12.
In the same order, the values of `N#Cc1cn(-c2c(Cl)cc(C(F)(F)F)cc2Cl)nc1[N+](=O)[O-]` [Compound 200, 1-(2,6-Dichloro-4-trifluoromethylphenyl)-4-cyano-3-nitropyrazole] are 100% and 12.
In the same order, the values of `N#Cc1nn(-c2c(Cl)cc(C(F)(F)F)cc2Cl)c([N+](=O)[O-])c1C#N` [Compound 201, 1-(2,6-Dichloro-4-trifluoromethylphenyl)-3,4-dicyano-5-nitropyrazole] are 100% and 12.
Regarding `CC(C)(C)[Si](C)(C)c1c(C#N)c(C(F)(F)F)nn1-c1c(Cl)cc(C(F)(F)F)cc1Cl` [Compound 206, 5-tert.-Butyldimethylsilyl-4-cyano-1-(2,6-dichloro-4-trifluoromethylphenyl)-3-trifluoromethylpyrazole], in test [1], the mortality at 5 ppm came out at 100%. In test [2], the mortality at 50 ppm was 100% and the “score from 4 replicates, Megoura viciae” value amounted to 12.
In the case of `C[Si](C)(C)c1c([N+](=O)[O-])c(C(F)(F)F)nn1-c1c(Cl)cc(C(F)(F)F)cc1Cl` [Compound 210, 1-(2,6-Dichloro-4-trifluoromethylphenyl)-4-nitro-3-trifluoromethyl-5-trimethylsilylpyrazole], the mortality at 5 ppm in test [1] is 100%. Also, in test [2], the mortality at 50 ppm amounted to 100% and the “score from 4 replicates, Megoura viciae” value is recorded as 12. Further, the mortality at 500 ppm in test [3] came to 100%.
Regarding `CC[S+]([O-])c1c(C(F)(F)F)nn(-c2c(Cl)cc(C(F)(F)F)cc2Cl)c1N` (stereo not drawn) [Compound 217, 5-Amino-1-(2,6-dichloro-4-trifluoromethylphenyl)-4-ethylsulphinyl-3-trifluoromethylpyrazole], the mortality at 5 ppm in test [1] was found to be 100%. Besides, in test [2], the mortality at 50 ppm stood at 100% and the “score from 4 replicates, Megoura viciae” value was 12.
As to `Cc1nn(-c2c(Cl)cc(C(F)(F)F)cc2Cl)c(N)c1S(=O)(=O)C(Cl)(Cl)Cl` [Compound 224, 5-Amino-1-(2,6-dichloro-4-trifluoromethylphenyl)-4-trichloromethanesulphonyl-3-methylpyrazole], in test [1], the mortality at 5 ppm came out at 100%. Moreover, in test [2], the mortality at 50 ppm is 100% and the “score from 4 replicates, Megoura viciae” value was determined as 12.
With `CCSc1c(C)nn(-c2c(Cl)cc(C(F)(F)F)cc2Cl)c1N` [Compound 225, 5-Amino-1-(2,6-dichloro-4-trifluoromethylphenyl)-4-ethylthio-3-methylpyrazole], in test [2], the mortality at 50 ppm is 100% and the “score from 4 replicates, Megoura viciae” value came to 12.
With `CSc1c(C)nn(-c2c(Cl)cc(C(F)(F)F)cc2Cl)c1N` [Compound 226, 5-Amino-1-(2,6-dichloro-4-trifluoromethylphenyl)-3-methyl-4-methylthiopyrazole], the mortality at 5 ppm in test [1] came to 100%. For the same compound, in test [2], the mortality at 50 ppm was found to be 100% and the “score from 4 replicates, Megoura viciae” value is recorded as 12.
Turning to `CSc1c(C(F)(F)F)nn(-c2c(Cl)cc(C(F)(F)F)cc2Cl)c1N` [Compound 229, 5-Amino-1-(2,6-dichloro-4-trifluoromethylphenyl)-4-methylthio-3-trifluoromethylpyrazole], the mortality at 5 ppm in test [1] is 100%. Besides, the mortality at 500 ppm in test [3] worked out at 100%.

One may read the mortality as the percentage killed.
